system: PDE4; test: Inhibition of PDE4 activity (method of Bauer and Schwabe, adapted to microtiter plates); format: biochemical; details: inhibitory concentration as -log IC50 (mol/l)

| SMILES | Inhibition of the PDE4 activity, -log IC50 |
| --- | --- |
| COc1ccc(C(=O)Nc2c(Cl)cncc2Cl)cc1OC1COCC1OC (stereo not shown) [Compound 1, N-(3,5-Dichloropyridin-4-yl)-4-methoxy-3-(4-methoxytetrahydrofuran-3-yloxy)benzamide] | 8.24 |
| CCOC1COCC1Oc1cc(C(=O)Nc2c(Cl)cncc2Cl)ccc1OC (stereo not shown) [Compound 2, N-(3,5-Dichloropyridin-4-yl)-3-(4-ethoxytetrahydrofuran-3-yloxy)-4-methoxybenzamide] | 8.25 |
| COc1ccc(C(=O)Nc2c(Cl)cncc2Cl)cc1OC1COCC1OCc1ccccc1 (stereo not shown) [Compound 3, N-(3,5-Dichloropyridin-4-yl)-3-(4-benzyloxytetrahydrofuran-3-yloxy)-4-methoxybenzamide] | 8.70 |
| COc1ccc(C(=O)Nc2c(Cl)cncc2Cl)c2c1OC1(COCC1OC)C2 (stereo not shown) [Compound 4, N-(3,5-Dichloropyridin-4-yl)-2,3-dihydro-4',7-dimethoxybenzofuran-2-spiro-3'-tetrahydro-furan-4-carboxamide] | 8.11 |
| COc1ccc(C(=O)Nc2c(Cl)cncc2Cl)c2c1OC1(COCC1OCc1ccccc1)C2 (stereo not shown) [Compound 5, N-(3,5-Dichloropyridin-4-yl)-2,3-dihydro-4'-benzyloxy-7-methoxybenzofuran-2-spiro-3'-tetrahydrofuran-4-carboxamide] | 8.58 |
| COc1ccc(C(=O)Nc2c(Cl)cncc2Cl)cc1OC1COCC1O (stereo not shown) [Compound 6, N-(3,5-Dichloropyridin-4-yl)-3-(4-hydroxytetrahydrofuran-3-yloxy)-4-methoxybenzamide] | 8.02 |
| COc1ccc(C(=O)Nc2c(Cl)cncc2Cl)cc1OC1COCC1OCSC (stereo not shown) [Compound 7, N-(3,5-Dichloropyridin-4-yl)-4-methoxy-3-(4-methylthiomethyloxytetrahydrofuran-3-yloxy)-benzamide] | 8.54 |

Source: patent US6303789A, “Benzamides with tetrahydrofuranyloxy substitutents as phosphodiesterase 4 inhibitors” (Byk Gulden Lomberg Chemische Fabrik GmbH, priority 1998, dated 2001)
